From patent US9730445B2, “Herbicidal compositions comprising 4-amino-3-chloro-5-fluoro-6-(4-chloro-2-fluoro-3-methoxyphenyl) pyridine-2-carboxylic acid or a derivative thereof and fungicides” (DOW AGROSCIENCES LLC, priority 2013, dated 2017)
Where “and” joins values, the source holds several entries; their conditions need not be identical. Equal entries are not always repeated.

Columns and labels:
LEFCH = test: Postemergence foliar-applied weed control, direct-seeded rice (greenhouse); assay type: in vivo, Leptochloa chinensis (L.) Nees (Chinese sprangletop)
FIMMI = test: In-water applied weed control, transplanted paddy rice (greenhouse); assay type: in vivo, Fimbristylis miliacea (L.) Vahl (globe fringerush)
Protocol: Weed seeds or nutlets of the desired test plant species were planted in puddled soil (mud) prepared by mixing a shredded, non-sterilized mineral soil (50.5 percent silt, 25.5 percent clay, and 24 percent sand, with a pH of about 7.6 and an organic matter content of about 2.9 percent) and water at a 1:1 volumetric ratio. The prepared mud was dispensed in 365 mL aliquots into 16-ounce (oz.) non-perforated plastic pots with a surface area of 86.59 square centimeters (cm^2) leaving a headspace of 3 centimeters (cm) in each pot. Rice seeds were planted in Sun Gro MetroMix® 306 planting mixture, which typically has a pH of 6.0 to 6.8 and an organic matter content of about 30 percent, in plastic plug trays. Seedlings at the second or third leaf stage of growth were transplanted into 860 mL of mud contained in 32-oz. non-perforated plastic pots with a surface area of 86.59 cm^2 4 days prior to herbicide application. The paddy was created by filling the headspace of the pots with 2.5 to 3 cm of water. When required to ensure good germination and healthy plants, a fungicide treatment and/or other chemical or physical treatment was applied. The plants were grown for 4-22 days in a greenhouse with an approximate 14 hour (h) photoperiod which was maintained at about 29° C. during the day and about 26° C. during the night. Nutrients were added as Osmocote® (17:6:10, N:P:K+minor nutrients) at 2 g per cup. Water was added on a regular basis to maintain the paddy flood, and supplemental lighting was provided with overhead metal halide 1000-Watt lamps as necessary. The plants were employed for testing when they reached the first through fourth true leaf stage. […]
Treatment requirements for each compound or fungicidal component were calculated based upon the rates being tested, the concentration of active ingredient or acid equivalent in the formulation, an application volume of 2 mL per component per pot, and an application area of 86.59 cm^2 per pot.
For formulated compounds, a measured amount was placed in an individual 100 or 200 mL glass vial and was dissolved in a volume of 1.25% (v/v) Agri-Dex® crop oil concentrate to obtain application solutions. […]
The treated plants and control plants were placed in a greenhouse as described above and water was added as needed to maintain a paddy flood. After approximately 3 weeks the condition of the test plants as compared with that of the untreated plants was determined visually and scored on a scale of 0 to 100 percent where 0 corresponds to no injury or growth inhibition and 100 corresponds to complete kill. […]

In the case of `COc1c(Cl)ccc(-c2nc(C(=O)OCc3ccccc3)c(Cl)c(N)c2F)c1F` [Compound A Benzyl Ester], the “Visual Weed Control (%) - 19 DAA LEFCH Obs” value (LEFCH; 19 DAA, r9-11 ester 8/16/32 g ae/ha alone, r12-13 flutolanil 280/560 g ai/ha alone, r14-19 ester 8/16/32 at each of 280, 560) is reported as 45% and 50%, the “Visual Weed Control (%)—21 DAA LEFCH Obs” value (LEFCH; r9-11 ester 8/16/32 g ae/ha alone, r12-14 kasugamycin 17.5/35/70 g ai/ha alone, r15-23 ester 8/16/32 at each of 17.5, 35, 70) is reported as 40% and 65% and the “Visual Weed Control (%) - 21 DAA LEFCH Obs” value (LEFCH; r10-11 ester 16/32 g ae/ha alone, r12 mancozeb 840 g ai/ha alone, r13-14 ester 16/32 + 840) is reported as 15% and 25%. For the same compound, the “Visual Weed Control (%) - 21 DAA LEFCH Obs” value (LEFCH; r10-12 ester 8/16/32 g ae/ha alone, r13-14 isoprothiolane 266/533 g ai/ha alone, r15-20 ester 8/16/32 at each of 266, 533) was 50% and 60% and 70%, the “Visual Weed Control (%)—21 DAA LEFCH Obs” value (LEFCH; r38-39 ester 8/16 g ae/ha alone, r40 isotianil 380 g ai/ha alone, r41-42 ester 8/16 + 380) was 25% and 40% and the “Visual Weed Control (%) - 21 DAA LEFCH Obs” value (LEFCH; r42-43 ester 16/32 g ae/ha alone, r44-46 difenoconazole 50/100/200 g ai/ha alone, r47-52 ester 16/32 at each of 50, 100, 200) was 25% and 43%. The “Visual Weed Control (%) - 22 DAA FIMMI Obs” value (FIMMI; Compound A Benzyl Ester 4.38 g ae/ha) was 50%, the “Visual Weed Control (%) - 22 DAA FIMMI Obs” value (FIMMI; Compound A Benzyl Ester 8.75 g ae/ha) was 80% and the “Visual Weed Control (%) - 22 DAA FIMMI Obs” value (FIMMI; Compound A Benzyl Ester 17.5 g ae/ha) was 100%.
